From patent US20260250318A1, “COMPOSITIONS AND METHODS FOR CROSSING THE BLOOD BRAIN BARRIER” (VOYAGER THERAPEUTICS, INC., priority 2022, published 2026)

What was measured:
[1] = tested on: brains, heart, liver, muscle, and DRG of the NHPs; experiment: Maturation of TTM-001 and TTM-002 capsids, NGS enrichment in NHP tissues; assay type: in vivo; settings: relative to AAV9 control
In short: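 Variants carry mutations within and flanking the loop IV peptide insert: positions 450–466 were triplet-randomized, while positions 449–466 received low-frequency point mutations. The combined pool went into two NHPs, and each peptide was scored by NGS enrichment ratio against AAV9.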

[2] = tested on: brain; experiment: Matured TTM-001 and TTM-002 variants, NGS enrichment in mouse brain; assay type: in vivo, mice; settings: relative to AAV9 control
[3] = NGS fold-enrichment of matured AAV capsid variants, NHP brain, RNA
[4] = NGS fold-enrichment of RNA, NHP brain
[5] = NGS fold-enrichment, DRG of NHPs
[6] = NGS fold-enrichment, NHP liver DNA
[7] = NGS fold-enrichment, NHP liver RNA
[8] = NGS fold-enrichment, NHP muscle
[9] = NGS fold-enrichment, RNA, brain of NHPs
[10] = NGS fold-enrichment, heart of NHPs
[11] = NGS fold-enrichment, liver DNA of NHPs
[12] = NGS fold-enrichment, liver RNA of NHPs
[13] = NGS fold-enrichment, muscle of NHPs
[14] = NGS fold-enrichment, brain of mice
[15] = NGS fold-enrichment, mouse brain

Sequence | Fold Enrichment relative to AAV9, Brain (NHP) [1, 3] [fold] | Fold Enrichment relative to AAV9, DRG (NHP) ([1]; NHP DRG) [fold] | Fold Enrichment relative to AAV9, Heart (NHP) ([1]; NHP heart) [fold] | Fold Enrichment relative to AAV9, Liver DNA (NHP) ([1]; NHP liver, DNA) [fold] | Fold Enrichment relative to AAV9, Liver RNA (NHP) ([1]; NHP liver, RNA) [fold] | Fold Enrichment relative to AAV9, Muscle (NHP) ([1]; NHP muscle) [fold] | Fold Enrichment relative to AAV9, Brain (Mouse) ([2]; mouse brain) [fold] | Fold Enrichment relative to AAV9, Brain (NHP) [1, 4] [fold] | Fold Enrichment relative to AAV9, DRG (NHP) [1, 5] [fold] | Fold Enrichment relative to AAV9, DRG (NHP) ([1]; NGS fold-enrichment, NHP DRG) [fold] | Fold Enrichment relative to AAV9, Heart (NHP) ([1]; NGS fold-enrichment, NHP heart) [fold] | Fold Enrichment relative to AAV9, Liver DNA (NHP) [1, 6] [fold] | Fold Enrichment relative to AAV9, Liver RNA (NHP) [1, 7] [fold] | Fold Enrichment relative to AAV9, Muscle (NHP) [1, 8] [fold] | Fold Enrichment relative to AAV9, Brain (NHP) [1, 9] [fold] | Fold Enrichment relative to AAV9, Heart (NHP) [1, 10] [fold] | Fold Enrichment relative to AAV9, Liver DNA (NHP) [1, 11] [fold] | Fold Enrichment relative to AAV9, Liver RNA (NHP) [1, 12] [fold] | Fold Enrichment relative to AAV9, Muscle (NHP) [1, 13] [fold] | Fold Enrichment relative to AAV9, Brain (Mouse) [2, 15] [fold] | further results
KTINGSGSPHSKLKSQQT | 50.368 | 0.000 | 0.296 | 1.096 | 1.796 | 0.000 | 95.240 |  |  |  |  |  |  |  |  |  |  |  |  |  | 
KTINGSGSPHSKRMEQQT | 50.177 | 0.000 | 0.000 | 0.208 | 1.327 | 0.000 | 81.769 |  |  |  |  |  |  |  |  |  |  |  |  |  | 
KTDKSSGSPHSKAQNQQT |  |  |  |  |  |  |  | 79.470 | 0.055 | 0.055 | 0.012 | 0.367 | 1.437 | 0.000 | 79.470 | 0.012 | 0.367 | 1.437 | 0.000 | 141.351 | Fold Enrichment relative to AAV9, Brain (Mouse) [2, 14]: 141.351 fold
KTINGSGSPHSKAPSNQT | 52.680 | 1.494 | 4.762 | 0.208 | 0.330 | 0.003 | 87.951 |  |  |  |  |  |  |  |  |  |  |  |  |  | 
KTERGSGSPHSKAQNQQT | 53.475 | 0.000 | 0.030 | 0.175 | 1.416 | 0.000 | 85.368 |  |  |  |  |  |  |  |  |  |  |  |  |  | 
KTDRNSGSPHSKAQNQQT | 54.495 | 0.000 | 0.000 | 0.241 | 0.823 | 0.000 | 85.823 |  |  |  |  |  |  |  |  |  |  |  |  |  | 
NTINGSGSPHSKAQNQQT (peptide inserted in AAV capsid) |  |  |  |  |  |  |  | 90.017 | 1.712 | 1.712 | 1.261 | 0.540 | 0.923 | 1.171 | 90.017 | 1.261 | 0.540 | 0.923 | 1.171 | 55.179 | Fold Enrichment relative to AAV9, Brain (Mouse) [2, 14]: 55.179 fold
KNVVGHDSPHKSGQNQQT |  |  |  |  |  |  |  | 75.330 |  | 0.000 | 0.024 | 0.049 | 0.063 | 0.000 |  |  |  |  |  | 8.077 | 
KTDNGHDSPHKSRQNQQT |  |  |  |  |  |  |  | 105.312 |  | 0.000 | 0.033 | 0.018 | 0.000 | 0.000 |  |  |  |  |  | 7.931 | 
KAEMGSGSPHSKAQNQQT |  |  |  |  |  |  |  | 83.049 | 0.000 | 0.000 | 0.020 | 0.112 | 0.768 | 0.000 | 83.049 | 0.020 | 0.112 | 0.768 | 0.000 | 135.019 | Fold Enrichment relative to AAV9, Brain (Mouse) [2, 14]: 135.019 fold
KTIIGSGSPHSKAQDRQT | 58.258 | 1.393 | 0.230 | 0.045 | 0.000 | 0.219 | 53.981 |  |  |  |  |  |  |  |  |  |  |  |  |  | 
KTINGSGSPHSKAQKQQD |  |  |  |  |  |  |  |  | 0.000 |  |  |  |  |  | 70.116 | 0.024 | 0.083 | 0.064 | 0.000 |  | Fold Enrichment relative to AAV9, Brain (Mouse) [2, 14]: 110.196 fold
KTIKGNDSPHKSVQNQQT |  |  |  |  |  |  |  | 85.986 |  | 0.000 | 0.135 | 0.000 | 0.263 | 0.000 |  |  |  |  |  | 8.603 | 
KTINGSGSPHSKAQGHHT | 56.559 | 0.000 | 0.000 | 0.117 | 0.632 | 0.000 | 71.050 |  |  |  |  |  |  |  |  |  |  |  |  |  | 
KTVNGSGSPHSKTQSQQT |  |  |  |  |  |  |  | 115.086 | 0.000 | 0.000 | 0.726 | 0.340 | 0.000 | 0.000 | 115.086 | 0.726 | 0.340 | 0.000 | 0.000 | 63.248 | Fold Enrichment relative to AAV9, Brain (Mouse) [2, 14]: 63.248 fold
KTVNAHDSPHKSGQNQLT |  |  |  |  |  |  |  | 79.137 |  | 0.000 | 0.233 | 0.045 | 0.753 | 0.178 |  |  |  |  |  | 29.254 | 
KTIPAIGSPHSKAQNQQT | 52.346 | 0.000 | 0.009 | 0.134 | 0.034 | 0.000 | 51.949 |  |  |  |  |  |  |  |  |  |  |  |  |  | 
KTSNGGGSPHSKAQNLQT |  |  |  |  |  |  |  |  | 0.000 |  |  |  |  |  | 68.311 | 0.052 | 0.000 | 0.000 | 0.000 |  | Fold Enrichment relative to AAV9, Brain (Mouse) [2, 14]: 124.871 fold
KTSSGSGSPHSKAQYQQT |  |  |  |  |  |  |  | 87.304 | 0.000 | 0.000 | 0.000 | 0.299 | 0.000 | 0.000 | 87.304 | 0.000 | 0.299 | 0.000 | 0.000 | 58.143 | Fold Enrichment relative to AAV9, Brain (Mouse) [2, 14]: 58.143 fold
